# Assay results published in US11340226B2, “Squalene epoxidase in the diagnosis and treatment of non-alcoholic fatty liver diseases” (priority 2018, dated 2022).
# Tests used:
# [1] = system: SQLE and PCNA expression; assay: Western blot of SQLE and PCNA expression in treated cells; type: cell-based
# [2] = system: HKCI10; assay: Colony formation assay; type: cell-based; details: 25 μM to 50 μM
# Method: (§1) 2 NAFLD-HCC cell lines (HKCI2, HKCI10) and one liver cancer cell line HepG2 were used in this study. Cell lines were maintained in RPMI-1640 or DMEM medium (Gibco BRL, Rockville, Md.) with 10% fetal bovine serum.
# (§2) For cell colony formation assay, liver cancer cells (1000/well) were plated in 6-well plates. Different dose of Terbinafine were added to these cells at the second day. After culturing for 5-7 days, cells were fixed with 70% ethanol and stained with 0.5% crystal violet solution. Colonies with more than 50 cells per colony were counted. All experiments were conducted three times in triplicates.
# [3] = system: HepG2 xenografts; assay: Subcutaneous HepG2 xenograft nude mice model; type: in vivo, Balb/c nude mice
# Method: A xenograft human liver cancer mouse model was established using HepG2 cells. HepG2 cells (1×10^7 cells in 0.1 ml PBS) were injected subcutaneously into the left dorsal flank of 4-week-old male Balb/c nude mice. Once the subcutaneous tumors reached about 100 mm^3, these mice were divided into vehicle group (PBS, p.o.) and terbinafine group (80 mg/kg, p.o.) randomly. Tumor diameter was measured every days for 10 days. For survival analysis, tumor diameter was measured every two days for 40 days. Tumor volume (mm^3) was estimated by measuring the longest and shortest diameter of the tumor and calculating as follows: volume=(shortest diameter)^2×(longest diameter)×0.5. Care of animals and all experimental procedures were approved by the Animal Ethics Committee of the Chinese University of Hong Kong. After more than 2 weeks, the mice were sacrificed, and the tumors were weighed and fixed in formalin for histological analysis. […]
# (§3) 10^6 cells or 2 mg tissues were harvested, and cholesterol/cholesteryl ester levels were detected by Cholesterol/Cholesteryl Ester Quantification kit (ab65359, Abcam) according to manufacturer's instructions. All experiments were conducted three times in triplicates. Results were shown as the means±SEM.
# [4] = system: HKCI2; assay: Colony formation assay; type: cell-based, human; details: 25 μM to 50 μM
# Method: as §1, §2
# [5] = system: HepG2; assay: Colony formation assay; type: cell-based, human; details: 25 μM to 50 μM
# Method: as §1, §2
# [6] = system: Sqle tg mice fed with a HFHC diet; assay: NASH development in HFHC-fed Sqle tg mice; type: in vivo
# Method: (§4) WT and Sqle Tg mice were fed with normal diet (18% fat, 58% carbohydrate, 24% protein, 0% cholesterol) or high fat high cholesterol (HFHC: 43.7% fat, 36.6% carbohydrate, 19.7% protein, 0.203% cholesterol) diets (Specialty Feeds, Glen Forrest, Wash.) ad libitum for different time point to generate spontaneous NAFLD model and diet-induced NASH model. 2 mg tissues were harvested, and liver cholesterol levels were detected by Cholesterol/Cholesteryl Ester Quantification kit (ab65359, Abcam) according to manufacturer's instructions. All experiments were conducted three times in triplicates. Results were shown as the means±SEM. 100 mg tissues were harvested, and liver triglyceride levels were detected by triglyceride Quantification kit (ab65336, Abcam) according to manufacturer's instructions. All experiments were conducted three times in triplicates. Results were shown as the means±SEM. Sqle tg mice and their wild-type littermates (WT) were fed a high fat high cholesterol diet at the age of 6 weeks. At 17 weeks of age (Sqle tg mice) or 24 weeks of age (WT mice), the mice will be randomized into two group and treated with either vehicle or Terbinafine (80 mg/kg/d, oral gavage). After 8 (WT mice) or 9 weeks (Sqle tg mice) terbinafine treatment, mice will be sacrificed to examine the therapeutic effect of Terbinafine. Assessment of NAFLD: Liver histology were evaluated at sacrifice using H&E staining. Assessment of inflammation: Liver damage were determined using serum ALT and AST. PCR and cytokine arrays were used to evaluate expression of pro-inflammatory cytokines. Assessment of metabolic syndrome: Insulin tolerance tests and glucose tolerance tests will be determined as described above. 20 mg tissues were harvested, and liver […] Quantification kit (ab65341, Abcam) according to manufacturer's instructions. All experiments were conducted three times in triplicates. Results were shown as the means±SEM. The serum cholesterol, TG, ALT and AST level were detected by the Catalyst One Chemistry Analyzer according to the manufacturer's instructions (IDEXX, USA). Thirty microliters of serum from wild-type or Sqle tg mice were diluted to 90 μl by physiological saline buffer. The diluted samples and specific slides (cholesterol, ALT and AST) were then loaded into the analyzer for automatic analysis. For the glucose tolerance test, mice were fasted overnight by transferring mice to clean cages with no food or feces in upper or bottom of cage. Mice were then injected intraperitoneally with 0.75 U insulin per kg body weight (ITT) or 1 g glucose per kg body weight (GTT) in water. Blood from the tail vein was obtained before the injection and at 30, 60 and 90 min after the injection for determination of blood glucose using Glucose Meter.
# [7] = system: HCC cell lines; assay: Cholesterol/cholesteryl ester levels in cells; type: cell-based
# Method: as §3
# [8] = system: HKCI10; assay: Cell growth, cell viability (MTS) assay; type: cell-based; details: 25 μM to 50 μM
# Method: as §1
# (§5) Cell viability was determined by the 3-(4,5-dimethylthiazol-2-yl)-5-(3-carboxyme-thoxyphenyl)-2-(4-sulfophenyl)-2H-tetrazolium (MTS) assay (Promega, Madison, Wis.).
# [9] = system: HKCI2; assay: Cell growth, cell viability (MTS) assay; type: cell-based, human; details: 25 μM to 50 μM
# Method: as §1, §5
# [10] = system: HepG2; assay: Cell growth, cell viability (MTS) assay; type: cell-based, human; details: 25 μM to 50 μM
# Method: as §1, §5
# [11] = system: HFHC-fed WT mice; assay: HFHC-induced NAFLD in WT mice; type: in vivo
# Excerpt: as §4, with “model.” for “model. 2 mg tissues were harvested, and liver cholesterol levels were detected by Cholesterol/Cholesteryl Ester Quantification kit (ab65359, Abcam) according to manufacturer's instructions. All experiments were conducted three times in triplicates. Results were shown as the means±SEM. 100 mg tissues were harvested, and liver triglyceride levels were detected by triglyceride Quantification kit (ab65336, Abcam) according to manufacturer's instructions. All experiments were conducted three times in triplicates. Results were shown as the means±SEM.”, “analysis.” for “analysis. For the glucose tolerance test, mice were fasted overnight by transferring mice to clean cages with no food or feces in upper or bottom of cage. Mice were then injected intraperitoneally with 0.75 U insulin per kg body weight (ITT) or 1 g glucose per kg body weight (GTT) in water. Blood from the tail vein was obtained before the injection and at 30, 60 and 90 min after the injection for determination of blood glucose using Glucose Meter.”
# [12] = system: Sqle tg mice injected with DEN and fed with a HFHC diet; type: in vivo
# Method: Sqle tg mice injected with DEN (10 days of age) and fed with a HFHC diet (6 weeks of age). At 20 weeks of age, the mice will be randomized into two group and treated with either vehicle or Terbinafine (80 mg/kg/d, oral gavage). After 8 weeks terbinafine treatment, mice will be sacrificed to examine the therapeutic effect of Terbinafine. […]
# The serum cholesterol, TG, ALT and AST level were detected by the Catalyst One Chemistry Analyzer according to the manufacturer's instructions (IDEXX, USA). Thirty microliters of serum from wild-type or Sqle tg mice were diluted to 90 μl by physiological saline buffer. The diluted samples and specific slides (cholesterol, ALT and AST) were then loaded into the analyzer for automatic analysis. […]
# [13] = system: orthotopic HKCI2 xenografts; assay: Orthotopic HKCI2 xenograft (human NAFLD-HCC) nude mice model; type: in vivo, Balb/c nude mice
# Method: An orthotopic human NAFLD-HCC mouse model was established using HKCI2 cells. HKCI2 cells (1×10^7 cells in 0.1 ml PBS) were injected subcutaneously into the left dorsal flank of 4-week-old male Balb/c nude mice. Subcutaneous tumors were harvested once they reached about 10 mm^3 and cut into 1.0 mm^3 pieces. One piece of a tumor was implanted into the left liver lobe in a separate group of nude mice (4-week-old). Four weeks after implantation, these mice were divided into vehicle group (PBS, p.o.) and terbinafine group (80 mg/kg, p.o.). Eight weeks post-implantation, the mice were sacrificed and examined. 10^6 cells or 2 mg tissues were harvested, and cholesterol/cholesteryl ester levels were detected by Cholesterol/Cholesteryl Ester Quantification kit (ab65359, Abcam) according to manufacturer's instructions. All experiments were conducted three times in triplicates. Results were shown as the means±SEM.
# [14] = subcutaneous HepG2 xenografts, 80 mg/kg/d, p.o.
# [15] = 80 mg/kg/d oral gavage, 9 weeks
# [16] = 80 mg/kg/d oral gavage, 8 weeks
# [17] = DEN-injected HFHC-fed Sqle tg mice
# [18] = livers of Sqle tg mice, western blot
structure (smiles),measurement,setting,value
CN(C/C=C/C#CC(C)(C)C)Cc1cccc2ccccc12 [terbinafine],PCNA expression,[1],suppressed
same,SQLE expression,[1],suppressed
same,cell lines proliferation by colony formation assay,[2],markedly suppressed
same,suppression of growth of subcutaneous HepG2 xenografts,"[3]; 80 mg/kg, p.o., P<0.01",77.8%
same,tumor cholesteryl ester levels,[3]; HepG2 xenografts,suppressed
same,tumor free cholesterol levels,[3]; HepG2 xenografts,suppressed
same,tumor volume,[3]; [14],significant reductions
same,tumor weight,[3]; [14],significant reductions
same,overall survival of mice harboring HepG2 xenografts,"[3]; tumor size 400 mm^3 as cutoff, P<0.01",significantly prolonged
same,cell lines proliferation by colony formation assay,[4],markedly suppressed
same,cell lines proliferation by colony formation assay,[5],markedly suppressed
same,insulin sensitivity (ITTs),[6],markedly improved
same,liver cholesterol level,[6],significantly decreased
same,liver free fatty acid accumulation,[6],significantly decreased
same,liver triglyceride,[6],significantly decreased
same,serum ALT level,[6],significantly decreased
same,serum AST level,[6],significantly decreased
same,serum triglyceride,[6],significantly decreased
same,body weight gain,[6]; [15],significantly attenuated
same,liver weight,[6]; [15],significantly attenuated
same,liver/body weight ratio,[6]; [15],significantly attenuated
same,liver inflammation and fibrosis level (mRNA expression of inflammation and fibrosis mediators),[6]; qPCR,reduced
same,steatohepatitis (H&E staining of livers),[6]; vs PBS control,reduction
same,cholesteryl ester levels,[7],suppressed
same,free cholesterol levels,[7],suppressed
same,cell lines proliferation by cell growth assay,[8],markedly suppressed
same,cell lines proliferation by cell growth assay,[9],markedly suppressed
same,cell lines proliferation by cell growth assay,[10],markedly suppressed
same,HFHC-induced serum cholesterol,[11],attenuated
same,liver steatosis (H&E staining and free fatty acid assay),[11],reduction
same,serum ALT level,[11],attenuated
same,serum AST level,[11],attenuated
same,serum triglyceride,[11],attenuated
same,body weight,[11]; [16],significantly decrease
same,liver weight,[11]; [16],significantly decrease
same,tumor number,"[12]; 80 mg/kg/d oral gavage, 8 weeks, P<0.01",significantly reduced
same,tumor incidence,"[12]; 80 mg/kg/d oral gavage, 8 weeks, vs 8/9 mice in PBS, P<0.05",4/9
same,NADP^+/NADPH ratio,[12]; [17],reducing
same,liver cholesterol levels,[12]; [17],decreased
same,liver/body weight ratio,[12]; [17],decreased
same,serum cholesterol levels,[12]; [17],decreased
same,Dnmt3a protein expression,[12]; [18],inhibited
same,Pten expression,[12]; [18],restored
same,Sqle protein expression,[12]; [18],inhibited
same,HCC tumorigenesis and cell proliferation (H&E and Ki-67 staining of livers),[12]; vs vehicle,reduction
same,suppression of growth of orthotopic HKCI2 xenografts,"[13]; 80 mg/kg, p.o., both in terms of tumor size or tumor weight, P<0.01",> 85%
same,tumor cholesteryl ester levels,[13]; HKCI2 xenografts,suppressed
same,tumor free cholesterol levels,[13]; HKCI2 xenografts,suppressed
